Results: publication PMC12888861, “Antibacterial activity of enmetazobactam against Acinetobacter spp.: a molecular dissection of mechanism of action and resistance determinants” (Antimicrobial Agents and Chemotherapy, 2025)

Test system: carbapenem-susceptible A. baumannii isolates (n = 54)
Test: MIC, broth microdilution (EUCAST), carbapenem-susceptible A. baumannii isolates
Assay type: cell-based, Acinetobacter baumannii
Conditions: for MIC: in combinations ETZ fixed at 8 mg/L
Source text: The bacterial strains used in this study comprised 208 clinical isolates from the Spanish National Acinetobacter spp. 2020 Multicenter Collection, which was previously characterized in detail by our research group, including whole-genome sequencing, phylogenetics studies, clonal dynamics, and resistance mechanisms ([2], [29]). Additionally, a collection of A. baumannii ATCC 17978 transformants coding the blaOXA-23, blaOXA-24/40, blaOXA-51, blaOXA-58, blaOXA-143, and blaOXA-201 genes, previously constructed and described by our group ([30]), was used to determine the activity of enmetazobactam against strains carrying the main CHDLs of A. baumannii.
The antimicrobial susceptibility of the 208 Acinetobacter spp. isolates was assessed using the broth microdilution method, as described in the European Committee on Antimicrobial Susceptibility Testing (EUCAST) v.15 guidelines (http://www.eucast.org/clinical_breakpoints). […] MICs for enmetazobactam alone were assessed as well. […] Subsequently, MIC testing was also conducted with a collection of A. baumannii ATCC 17978 transformants expressing clinically relevant OXA-like carbapenemase genes.
The A. baumannii ATCC 19606 strain was used as the reference strain in all susceptibility experiments, in duplicate assays. Antibiotics were purchased from Sigma-Aldrich, except enmetazobactam and durlobactam, which were obtained from Advanz Pharma and MedChemExpress, respectively.

[1] = Acinetobacter baumannii, carbapenem-susceptible A. baumannii isolates (n = 54), ETZ fixed 8 mg/L in combinations
[2] = […], ETZ fixed 8 mg/L in combinations

Q: What does the source list for `CO/N=C(\C(=O)N[C@@H]1C(=O)N2C(C(=O)[O-])=C(C[N+]3(C)CCCC3)CS[C@H]12)c1csc(N)n1` [cefepime]?
A: MIC distribution 0.12: 0; MIC (Acinetobacter baumannii, isolate Ab1, ST 164, ADC-6, OXA-91): 2 µg/mL; MIC (Acinetobacter baumannii, isolate Ab11, ST 239, ADC-2, OXA-51): 2 µg/mL; MIC (Acinetobacter baumannii, isolate Ab34, ST 2182, ADC-2, OXA-130): 2 µg/mL; MIC (Acinetobacter baumannii, isolate Ab38, ST 866, ADC-2, OXA-385): 8 µg/mL; MIC (Acinetobacter baumannii, isolate Ab40, ST 2176, ADC-2, OXA-64): 2 µg/mL; MIC (Acinetobacter baumannii, isolate Ab50, ST 2176, ADC-2, OXA-64): 2 µg/mL; MIC (Acinetobacter baumannii, isolate Ab57, ST 1470, ADC-58, OXA-106): 2 µg/mL; MIC (Acinetobacter baumannii, isolate Ab58, ST 6, ADC-2, OXA-94): 4 µg/mL; MIC (Acinetobacter baumannii, isolate Ab61, ST 1639, ADC-7, OXA-64): 1 µg/mL; MIC (Acinetobacter baumannii, isolate Ab62, ST 265, ADC-2, OXA-91): 1 µg/mL; MIC (Acinetobacter baumannii, isolate Ab67, ST 1, ADC-11, OXA-69): 2 µg/mL; MIC (Acinetobacter baumannii, isolate Ab79, ST 106, ADC-11, OXA-78): 1 µg/mL; MIC (Acinetobacter baumannii, isolate Ab80, ST 2182, ADC-6, OXA-208): 1 µg/mL; MIC (Acinetobacter baumannii, isolate Ab81, ST 25, ADC-79, OXA-64): 2 µg/mL; MIC (Acinetobacter baumannii, isolate Ab93, ST 25, ADC-79, OXA-64): 2 µg/mL; MIC (Acinetobacter baumannii, isolate Ab95, ST 582, ADC-5, OXA-317): 2 µg/mL; MIC (Acinetobacter baumannii, isolate Ab96, ST 582, ADC-5, OXA-317): 1 µg/mL; MIC (Acinetobacter baumannii, isolate Ab100, ST 145, ADC-58, OXA-343): 2 µg/mL; MIC (Acinetobacter baumannii, isolate Ab110, ST 1623, ADC-3, OXA-70): 8 µg/mL; MIC (Acinetobacter baumannii, isolate Ab112, ST 193, ADC-like, OXA-120): 0.5 µg/mL; MIC (Acinetobacter baumannii, isolate Ab124, ST 2176, ADC-2, OXA-64): 1 µg/mL; MIC (Acinetobacter baumannii, isolate Ab127, ST 2176, ADC-2, OXA-64): 2 µg/mL; MIC (Acinetobacter baumannii, isolate Ab128, ST 2176, ADC-2, OXA-64): 1 µg/mL; MIC (Acinetobacter baumannii, isolate Ab130, ST 32, ADC-79, OXA-100): 4 µg/mL; MIC (Acinetobacter baumannii, isolate Ab131, ST 687, ADC-like, OXA-208): 0.5 µg/mL; MIC (Acinetobacter baumannii, isolate Ab132, ST 1112, ADC-79, OXA-89): 4 µg/mL; MIC (Acinetobacter baumannii, isolate Ab136, ST 2183, ADC-like, OXA-66): 2 µg/mL; MIC (Acinetobacter baumannii, isolate Ab139, ST 54, ADC-like, OXA-365): 2 µg/mL; MIC (Acinetobacter baumannii, isolate Ab142, ST 1, ADC-like, OXA-69): 16 µg/mL; MIC (Acinetobacter baumannii, isolate Ab143, ST 1328, ADC-76, OXA-408): 2 µg/mL; MIC (Acinetobacter baumannii, isolate Ab149, ST 1112, ADC-6, OXA-407): 2 µg/mL; MIC (Acinetobacter baumannii, isolate Ab150, ST 2184, ADC-like, OXA-64): 2 µg/mL; MIC (Acinetobacter baumannii, isolate Ab152, ST 132, ADC-2, OXA-120): 2 µg/mL; MIC (Acinetobacter baumannii, isolate Ab158, ST 2034, ADC-2, OXA-217): 0.5 µg/mL; MIC (Acinetobacter baumannii, isolate Ab163, ST 132, ADC-2, OXA-120): 0.5 µg/mL; MIC (Acinetobacter baumannii, isolate Ab167, ST 1623, ADC-like, OXA-345): 1 µg/mL; MIC (Acinetobacter baumannii, isolate Ab168, ST 1470, ADC-75, OXA-402): 1 µg/mL; MIC (Acinetobacter baumannii, isolate Ab170, ST 2110, ADC-4, OXA-338): 2 µg/mL; MIC (Acinetobacter baumannii, isolate Ab172, ST 2185, ADC-5, OXA-217): 1 µg/mL; MIC (Acinetobacter baumannii, isolate Ab185, ST 2, ADC-26, OXA-66): 4 µg/mL; MIC (Acinetobacter baumannii, isolate Ab187, ST 105, ADC-2, OXA-430): 0.5 µg/mL; MIC (Acinetobacter baumannii, isolate Ab188, ST 203, ADC-6, OXA-217, PDC-1): 0.5 µg/mL; MIC (Acinetobacter baumannii, isolate Ab189, ST 1405, ADC-3, OXA-120): 1 µg/mL; MIC (Acinetobacter baumannii, isolate Ab190, ST 2186, ADC-6, OXA-413): 1 µg/mL; MIC (Acinetobacter baumannii, isolate Ab193, ST 164, ADC-6, OXA-91): 1 µg/mL; MIC (Acinetobacter baumannii, isolate Ab195, ST 1, ADC-11, OXA-69): 2 µg/mL; MIC (Acinetobacter baumannii, isolate Ab200, ST 1336, ADC-2, OXA-51): 2 µg/mL; MIC (Acinetobacter baumannii, isolate Ab202, ST 1, ADC-11, OXA-69): 2 µg/mL; MIC (Acinetobacter baumannii, isolate Ab203, ST 221, ADC-6, OXA-88): 1 µg/mL; MIC (Acinetobacter baumannii, isolate Ab206, ST 2187, ADC-58, OXA-69): 1 µg/mL; MIC (Acinetobacter baumannii, isolate Ab209): 1 µg/mL; MIC (Acinetobacter baumannii, isolate Ab213): 1 µg/mL; MIC (Acinetobacter baumannii, isolate Ab218): 2 µg/mL; MIC (Acinetobacter baumannii, isolate Ab220): 0.5 µg/mL; MIC50 [1]: 4 µg/mL; MIC90 [1]: 8 µg/mL; MIC distribution 0.25 [2]: 0; MIC distribution 0.5 [2]: 0; MIC distribution 1 [2]: 13.0; MIC distribution 2 [2]: 44.4; MIC distribution 4 [2]: 87.0; MIC distribution 8 [2]: 94.4; MIC distribution 16 [2]: 98.1; MIC distribution ≤0.06 [2]: 0; MIC distribution ≥32 [2]: 100
